Results: PMC7163917 (European journal of medicinal chemistry, 2020)
Where two headings read alike, the source gives them in different places.

Legend:
[1] = molecular target: T1, STEP (Homo sapiens, UniProt P54829); assay: STEP-catalyzed pNPP hydrolysis inhibition; assay type: biochemical; conditions: ST3 analogs, removal of carboxyl and hydroxyl group
T1 sequence (P54829 300-555 limits assumed): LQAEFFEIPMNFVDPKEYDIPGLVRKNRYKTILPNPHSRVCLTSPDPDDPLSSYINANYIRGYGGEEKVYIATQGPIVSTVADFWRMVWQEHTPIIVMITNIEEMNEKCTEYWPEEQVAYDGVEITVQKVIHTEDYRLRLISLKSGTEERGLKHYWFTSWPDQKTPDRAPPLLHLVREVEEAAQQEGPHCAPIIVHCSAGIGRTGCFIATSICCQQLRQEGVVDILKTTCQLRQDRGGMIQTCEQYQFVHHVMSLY

[2] = tested on: phosphorylation of ERK1/2 in PC12 cells; assay: NGF-induced phosphorylation of ERK1/2 in PC12 cells; assay type: cell-based; conditions: 20 μM inhibitor, NGF 5 min
[3] = molecular target: STEP F523A mutant (Homo sapiens, UniProt P54829, F547A)
STEP F523A mutant, sequence (P54829 282-563 F547A): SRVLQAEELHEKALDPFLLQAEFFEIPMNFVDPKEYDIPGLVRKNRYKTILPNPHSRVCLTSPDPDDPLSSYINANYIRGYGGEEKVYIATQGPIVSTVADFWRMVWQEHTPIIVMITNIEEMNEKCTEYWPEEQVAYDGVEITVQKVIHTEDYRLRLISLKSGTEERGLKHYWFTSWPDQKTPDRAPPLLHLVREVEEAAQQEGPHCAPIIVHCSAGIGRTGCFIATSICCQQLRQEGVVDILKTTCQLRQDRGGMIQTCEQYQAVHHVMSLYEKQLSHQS

[4] = molecular target: T1, STEP; assay: Ki measurement and Lineweaver-Burk kinetic analysis of STEP inhibition; assay type: biochemical; conditions: pNPP, pH 6.0, 30 °C
[5] = tested on: phosphorylation of Pyk2 in PC12 cells; assay: NGF-induced phosphorylation of Pyk2 in PC12 cells; assay type: cell-based; conditions: 20 μM inhibitor, NGF 5 min

With `COC(=O)c1cccc(-c2ccc(/C=C3\Sc4ccccc4C3=O)o2)c1` [ST3–3] the “effect of structural change on STEP inhibitory activity” value [1] was “significantly decreased”.

For `Cc1cc(-c2ccc(/C=C3\Sc4ccccc4C3=O)o2)ccc1Cl` [ST3–1], the “effect of structural change on STEP inhibitory activity” value [1] was “significantly decreased”.

For `O=C(O)c1cccc2c1NC(c1ccc(F)cc1)C1CC(Sc3ccccc3[N+](=O)[O-])C(Cl)C21` (centres unmarked) [ST2–5], the “effect on NGF-induced phosphorylation of ERK1/2” value (shortened to “effect … of ERK1/2”) [2] was “significantly increased”, the “inhibitory activity in STEP F523A mutant compared with wild type” value [3] was “decreased” and the “inhibition pattern (Lineweaver-Burk plot)” value (“inhibition pattern” below) [4] was “competitive”. For the same molecule, the “effect on NGF-induced phosphorylation of Pyk2” value (“effect … of Pyk2” below) [5] was “significantly increased”.

For `O=C(O)c1cc(-c2ccc(/C=C3\Sc4ccccc4C3=O)o2)ccc1O` [ST3], the “effect … of ERK1/2” value [2] was “significantly increased”, the “inhibition pattern” value [4] was “competitive” and the “effect … of Pyk2” value [5] was “significantly increased”.

With `Cc1cc(C(=O)O)ccc1-c1ccc(C=C2C(=O)c3ccccc3C2=O)o1` [ST3–5] the “effect … of ERK1/2” value [2] was “significantly increased”, the “inhibitory activity in STEP F523A mutant compared with wild type” value ([3]; STEP F523A mutant) was “decreased” and the “inhibition pattern” value [4] was “competitive”. The “effect … of Pyk2” value [5] was “significantly increased”.

In the case of `O=C(O)c1cccc2c1NC(c1cccc(Br)c1)C1CC(Sc3ccccc3[N+](=O)[O-])C(Cl)C21` (centres unmarked) [ST2], the “effect … of ERK1/2” value [2] was “significantly increased”, the “inhibitory activity in STEP F523A mutant compared with wild type” value [3] was “decreased” and the “inhibition pattern” value [4] was “competitive”. The “effect … of Pyk2” value [5] was “significantly increased”.
